“And” between values parts separate entries of the source, which are not always exact repeats. Identical values can stand only once. Marks after values point to notes of the source that are not given here.
How the values were obtained:
[1] = Initial animal toxicity studies of M4N in mice; format: in vivo
caspase-3 = settings: C3 cells, 72 hours
C3 tumor [2] = assay: Histopathology of excised C3 tumors; format: in vivo, mice; settings: hematoxylin and eosin sections
Protocol: Drug treated (M4N) and DMSO vehicle-treated or untreated tumors (CON) from two groups of mice were prepared for histopathology examination. The excised tumors were immediately fixed and then stored in 4% formaldehyde in phosphate buffered saline. The fixed tissue was then dehydrated through a series of graded alcohols and xylene and embedded in paraffin. The paraffin tissue blocks were thin sectioned and stained for microscopy with hematoxylin and eosin. […] They show the high nuclear/cytoplasmic ratio, pleomorphic nuclear changes, high mitotic figures, spindle like sarcoma shape, and infiltration into the surrounding tissue characteristic of cancer cells.

CEM-T4 line = assay: CEM-T4 cell growth; format: cell-based, human; settings: three days
Protocol: (§1) FIG. 9. […] (a-d) C3, CEM-T4, C33a, and TC-1 cells were treated with different concentrations of M4N. The number of cells present at the initiation of the experiment is indicated as Day 0. After three days the number of viable cells were counted and plotted versus the M4N concentration. […] After 3 days, one-half of the M4N treated cells were given fresh media containing only 1% DMSO (M-D), while the rest of the cells were given fresh media with the same conditions (second media change). The cells were counted daily and plotted versus the time of treatment.

E6/E7 mRNA = assay: RT-PCR of HPV-16 E6/E7 transcripts in C3 cells; settings: 40 μM
Protocol: The RTPCR samples were removed after increasing cycles of amplification and resolved on an agarose gel.
The RT-PCR product was analyzed on a 2% agarose gel.

C33a cell line = assay: C33a cell growth; format: cell-based, human; settings: three days
Protocol: as §1

C3 cells [3] = system: C3 cells
Protocol: as §1
HPV-16 transformed immortal mouse epithelial cells (C3 cells) were plated at a density of 10^5 cells per vial.
The effect on C3 growth following removal of M4N from the medium was also examined. C3 cells were plated at a density of 10^4 cells per vial. […] The other ⅔ of the cell vials were washed and replaced with the same media administered before.
This hypothesis was tested by examining the antiproliferative effect of M4N on a number of different cell lines.

C3 cells [4] = assay: Cell cycle DNA content by propidium iodide flow cytometry, C3; settings: C3, 72 hours
Source text: The cells were trypsinized, fixed with ethanol, stained with propidium iodide, and were subsequently analyzed by flow cytommetry. […] The indicated stages of the cell cycle are labeled and correspond to the relative cellular DNA compliment as determined by staining intensity.

[5] = system: HIV LTR promoter (Tat-transactivation); assay: Tat-transactivation of HIV promoter activity in Cos cells, SEAP assay; format: cell-based; settings: read-out: IC50 for inhibition of HIV Tat-regulated transactivation
Source text: As reported previously, methylated NDGA derivatives can block Sp1 binding to the enhancer sites of a variety of viral promoters including HIV, ICP4 of HSV, E6/E7 gene of HPV (8, 9, 10). We further tested the G4N effect on the Tat-transactivation of HIV promoter activity in Cos cells by the SEAP assay as previously described. […] There were 60-fold or more increase in SEAP expression when Cos cells were cotransfected with the CMV promoter driven Tat gene (8). Such Tat-driven ransactivation of the HIV LTR promoter activity was previously shown to be Sp1 regulated (7, 8). In the presence of G4N, we observed inhibition of HIV transactivation in a dose-dependent fashion (FIG. 14). […]. The differences perhaps are due to the chemical nature of the test compounds affecting the drug uptake to the cells.

CDC2 mRNA = assay: Northern blot of CDC2 mRNA in C3 cells; settings: 40 μM
[6] = system: cellular gene expression in C3 cells; assay: 9600 gene array hybridization of C3 cells; format: cell-based, mouse; settings: 72 hrs
Source text: Gene expression with 9600 gene arrays was studied (FIG. 5). Five micrograms each of poly A^+RNA from 72 hrs. M4N ([…]) treated (C3 M4N) and non-treated (C3 DMSO) was used in a pair of human 9600 gene array hybridization study according to the procedure described in Genomics 51, 313-324 1998. The hybridization image was captured by a color video camera with a Nikon 55 mm AF micro Niko lens and digitized by a Macintosh LC630 computer. Such detection via enzyme substrate reaction of color-forming enzymes in either single or dual-color mode is reproducible and extremely sensitive (can detect <5 copies of transcript per cell with RNAs from 10^7 cells).
[…]. Image files in TIFF format and data files in MS excel format are kept on ZIP diskette. Gene names and clone ID numbers are available for obtaining Image clones for future northern blot confirmation.

C3 tumor [7] = assay: C3 tumor growth in mice, local (intratumoral) injection; format: in vivo
Protocol: Thirty six C57b1-16 NCR mice were injected with 5×10^5 C3 cells between the shoulders on the backs of the mice. Twenty four of the mice developed tumors within 20 days. […]
36 C57b1-16NCR mice were injected with 5×10^5 C3 cells/mouse. Injections were 100 μL made subcutaneously between the shoulders on the backs of the mice. Cells were suspended in low-salt HBSS and suspension uniformity was maintained by gentle vortexing.
24 mice developed tumors. Their lesion sizes were measured by dial caliper. These mice were shaved, weight and treatment begun (Day 1). Four were sequestered as controls. Control mice received 50 μl DMSO injected intratumorally daily. […]. Injections were made to several regions of tumor. Mice anesthetized with ether or metaphane prior to injection.
The treatment regimen and results were as follows: • Day 10: Mice weighed again. […]. The skin at the lesion site of #17 cracked with the “dried-out tumor” showing. It was dissected, and lesion excised and weighed. […]. Remaining control mice (#1, 3, 4) were examined non-invasively and were carrying tumors. • Day 21: Tumor sizes from control mice were measured by dial caliper. […]. […]

[8] = mice carrying multiple tumors, per mouse
[9] = mice with single tumors, per mouse

**Q.** Which “non-toxic to mice at concentrations as high as” value ([1]; given either subcutaneously or by IV) does the source give for COc1ccc(C[C@@H](C)[C@@H](C)Cc2ccc(OC)c(OC)c2)cc1OC [M4N, tetra-O-methylnordihydroguaiaretic acid] here?
**A.** ≤ 375 mg/kg

**Q.** And the “non-toxic to mice at concentrations as high as” value ([1]; given intraperitoneally)?
**A.** ≤ 300 mg/kg

**Q.** And the caspase-3 cleavage (caspase-3)?
**A.** caspase-3 activation

**Q.** What about the “histopathology of treated tumors” value (C3 tumor [2]) of the same molecule?
**A.** significant necrosis

**Q.** What about the “growth of CEM-T4 line” value (CEM-T4 line) of the same molecule?
**A.** blocked

**Q.** And the “levels of the E7 transcript” value (E6/E7 mRNA; 5 to 72 hours, rtPCR)?
**A.** clear reduction

**Q.** What about the “amplified E7 (321 bp) and E6 (204 bp) RT-PCR products” value (E6/E7 mRNA; 71 hours, following 30 cycles of amplification) of the same molecule?
**A.** barely detectable

**Q.** What about the “growth of C33a cell line” value (C33a cell line) of the same molecule?
**A.** blocked

**Q.** What about the “rate of cell growth following the change to drug-free media” value (C3 cells [3]; 40 μM for 73 hours, then media with 1% DMSO only) of the same molecule?
**A.** not notably increased

**Q.** And the “fraction of viable cells compared to the total cell count” value (C3 cells [3]; 40 μM in 1% DMSO)?
**A.** remained constant

**Q.** What about the “growth and division of C3 cells” value (C3 cells [3]; 40 μM in 1% DMSO, versus DMSO only control) of the same molecule?
**A.** markedly reduced

**Q.** And the “"threshold" concentration above which the percentage of viable cells decreases precipitously” value (C3 cells [3]; C3 cells)?
**A.** 60 µM

**Q.** And the “cell death after prolonged exposure” value (C3 cells [3]; C3 cells, eight days, 40 μM)?
**A.** no increase in cell death

**Q.** And the “viable fraction of arrested cells” value (C3 cells [3]; the four cell lines treated (C3, CEM-T4, C33a, TC-1), up to the threshold concentration)?
**A.** > 95%

**Q.** And the “cells showing G2/M DNA content” value (C3 cells [4])?
**A.** > 90%

**Q.** And the IC50 [5]?
**A.** 11 µM

**Q.** What about the “amount of CDC2 mRNA” value (CDC2 mRNA; 24 hours) of the same molecule?
**A.** reduced

**Q.** And the “amount of CDC2 mRNA” value (CDC2 mRNA; 72 hours)?
**A.** nearly eliminated

**Q.** What about the “Cyclin-dependent kinase 7 expression, Treated” value ([6]; 40 μM, Untreated = 100%) of the same molecule?
**A.** (5%)

**Q.** And the “Cysteine protease expression, Treated” value ([6]; 40 μM, Untreated = 100%)?
**A.** (7%)

**Q.** What about the “Human TNF-related Apoptosis AP02 expression, Treated” value ([6]; 40 μM, Untreated = 100%) of the same molecule?
**A.** (3%)

**Q.** What about the “Human cytokine receptor expression, Treated” value ([6]; 40 μM, Untreated = 100%) of the same molecule?
**A.** (2%)

**Q.** What about the “Proliferating cell nuclear antigen, PCNA expression, Treated” value ([6]; 40 μM, Untreated = 100%) of the same molecule?
**A.** (1%)

**Q.** What about the “Increase: Apoptosis (APO-1) antigen” value ([6]; 40 μm, vs C3 DMSO) of the same molecule?
**A.** (100X)

**Q.** What about the “Increase: Cyclin-dependent kinase inhibitor” value ([6]; 40 μm, vs C3 DMSO) of the same molecule?
**A.** (100X)

**Q.** What about the “Increase: Death Domain Three DR3” value ([6]; 40 μm, vs C3 DMSO) of the same molecule?
**A.** (100X)

**Q.** What about the “Increase: Human Map Kinase” value ([6]; 40 μm, vs C3 DMSO) of the same molecule?
**A.** (40X)

**Q.** And the “Increase: Ras-related protein RAP-1” value ([6]; 40 μm, vs C3 DMSO)?
**A.** (60X)

**Q.** And the “body weight changes during the entire experimental period” value (C3 tumor [7]; Tables 1 and 2)?
**A.** insignificant

**Q.** What about the “tumor growth in mice” value (C3 tumor [7]; daily injection of 50 μl to 100 μl for several days) of the same molecule?
**A.** completely stop tumor growth

**Q.** And the “average weight of treated lesions” value (C3 tumor [7]; mice carrying multiple tumors, drug injected into one of the tumors)?
**A.** 0.15 g

**Q.** What about the “Body wt. Day 1” value (C3 tumor [7]; [8]) of the same molecule?
**A.** 17.8 g and 20.2 g and 17.5 g

**Q.** And the “Body wt. Day 24” value (C3 tumor [7]; [8])?
**A.** 20.0 g and 17.9 g and 22.1 g

**Q.** What about the “Wt. Of Excised Lesion, Treated” value (C3 tumor [7]; mice carrying multiple tumors, drug injected directly to the tumor regions, per mouse) of the same molecule?
**A.** 0.11 g and 0.25 g and 0.1 g

**Q.** And the “average weight of excised lesions” value (C3 tumor [7]; mice carrying single tumors, control group 1.48 g)?
**A.** 0.142 g

**Q.** And the “Body wt. Day 1” value (C3 tumor [7]; [9])?
**A.** 19 g and 18.2 g and 19.5 g and 17 g and 18.9 g and 17.2 g and 17.3 g

**Q.** What about the “Body wt. Day 16” value (C3 tumor [7]; [9]) of the same molecule?
**A.** 19.2 g and 17.6 g (2×) and 20.0 g

**Q.** What about the “Body wt. Day 24” value (C3 tumor [7]; [9]) of the same molecule?
**A.** 20.4 g and 20.2 g

**Q.** What about the “Wt. Of Excised Lesion Day 16” value (C3 tumor [7]; [9]) of the same molecule?
**A.** 0.2 g and 0.4 g and 0.1 g and 0 g

**Q.** What about the “Wt. Of Excised Lesion Day 24” value (C3 tumor [7]; [9]) of the same molecule?
**A.** 0.1 g and 0 g

**Q.** And the “Wt. Of Excised Lesion, taken on Day 15” value (C3 tumor [7]; mouse 17, single tumor)?
**A.** 0.2** g
